What all share (assay): cells
Common to all, as to type: cell-based

For test [1], the system named is breast cancer MCF7 cell line. To be noted: cultured 48 h, MTT. On the procedure:
(§1) A cell strain: Hepatoma HepG2, cervical cancer Hela, lung cancer A549, breast cancer MCF7 cell line and human normal liver cell HL7702 were purchased from Wuhan Boster Biological Technology Co., Ltd.;
(§2) HepG2, Hela, A549, MCF 7 cells in logarithmic growth phase and human normal hepatocytes HL7702 were centrifuged at 1500 rpm for 5 min, and the supernatant was discarded; the cells were digested with a suitable amount of trypsin, and then suspended with a suitable amount of culture medium (HepG2, Hela and HL7702 cells were suspended with penicillin-streptomycin RPMI1640 culture medium containing 10% calf serum, A549 and MCF 7 cells with penicillin-streptomycin high glucose DMEM culture medium containing 10% calf serum, to adjust the cell concentration to 1.5×10^4 cells/well, the cells were seeded in 96-well plates, and the following experimental groups were set:
(§3) 0.10 mL of the cell suspension was added to each well, and incubated at 37° C., 5% CO2 and saturated humidity for 12 h, and the culture medium was discarded when the cell density was nearly 70%. […] 100 μl of 5 mg/ml MTT was added per well, standing for 4 h at 37° C. 100 μl of DMSO was added to each well, followed by shaking on a shaker for 10 min at 37° C., the absorbance (OD) was measured at 492 nm, and the MTT ratio was calculated as the OD value of drug group/OD value of negative control group.

The next test deals with Hepatoma HepG2. To be noted: cultured 48 h, MTT. On the procedure: as §1, §2, §3
In the next test the test system is lung cancer A549. The note with it: cultured 48 h, MTT. Here is the method: as §1, §2, §3
The next test has as its system cervical cancer Hela. To be noted: cultured 48 h, MTT. Here is the method: as §1, §2, §3
The subject of test [2] is human normal liver cell HL7702. The note with it: human normal hepatocytes HL7702, cultured 48 h, MTT. On the procedure:
as §1, §2, §3

In patent US11319328B2 (priority 2017, dated 2022) one finds IC50 data, which are given here for 18 compounds.

The structures appear in SMILES notation. Where only a bound is given, the exact number is not on record here.

`COc1cc([C@@H]2c3cc4c(cc3[C@@H](Nc3cccc5ncccc35)[C@@H]3COC(=O)[C@H]23)OCO4)cc(OC)c1OC` [Compound 8, 4β-NH-(5-aminoquinoline) podophyllotoxin]: the IC50 (in test [1]; with Hepatoma HepG2; in the test on lung cancer A549; in the test on cervical cancer Hela; in test [2]) was greater than 100 µM in each case.

For `COc1cc(C2c3cc4c(cc3C(Nc3cccc5cnccc35)C3COC(=O)C23)OCO4)cc(OC)c1OC` (stereo not drawn) [Compound 9, 4β-NH-(5-aminoisoquinoline) podophyllotoxin], the IC50 in test [1] turned out to be 1.4 ± 0.3 µM; with Hepatoma HepG2, 4.1 ± 1.1 µM; with lung cancer A549, 2.3 ± 0.1 µM; with cervical cancer Hela, 3.1 ± 0.2 µM; in test [2] it was 16.3 ± 2.8 µM.

On to `COc1cc([C@@H]2c3cc4c(cc3[C@@H](Nc3cccc5cccnc35)[C@@H]3COC(=O)[C@H]23)OCO4)cc(OC)c1OC` [Compound 10, 4β-NH-(8-aminoquinoline) podophyllotoxin], for which the IC50 was 1 ± 0.1 µM in test [1]; 4.6 ± 0.4 µM with Hepatoma HepG2; 1.2 ± 0.2 µM in the test with lung cancer A549; 2.7 ± 0.3 µM in the test on cervical cancer Hela; 37 ± 4.8 µM in test [2].

On to `COc1cc([C@@H]2c3cc4c(cc3[C@@H](Nc3cccc5ccc(C)nc35)[C@@H]3COC(=O)[C@H]23)OCO4)cc(OC)c1OC` [Compound 11, 4β-NH-(8-aminoquinaldine) podophyllotoxin], for which the IC50 was 1 ± 0.2 µM in test [1]; 1.6 ± 0.1 µM in the test on Hepatoma HepG2; 3 ± 0.4 µM in the test with lung cancer A549; 1.5 ± 0.1 µM in the test on cervical cancer Hela; greater than 100 µM in test [2].

Consider `COc1cc(C2c3cc4c(cc3C(Nc3ccc5[nH]ncc5c3)C3COC(=O)C23)OCO4)cc(OC)c1OC` (stereo not drawn) [Compound 12, 4β-NH-(5-indazolamine) podophyllotoxin], for which the IC50 in test [1] came to 0.4 ± 0.03 µM; with Hepatoma HepG2, 0.3 ± 0.02 µM; in the test with lung cancer A549, 0.2 ± 0.02 µM; with cervical cancer Hela, 0.5 ± 0.01 µM; in test [2] it was 50 µM.

On to `COc1cc(C2c3cc4c(cc3C(Nc3ccc5cn[nH]c5c3)C3COC(=O)C23)OCO4)cc(OC)c1OC` (stereo not drawn) [Compound 13, 4β-NH-(6-indazolamine) podophyllotoxin], for which the IC50 in test [1] was 1.3 ± 0.2 µM; in the test with Hepatoma HepG2 it was 1.8 ± 0.2 µM; with lung cancer A549, 2.4 ± 0.2 µM; with cervical cancer Hela, 2.1 ± 0.3 µM; in test [2], 33.6 ± 1.5 µM.

As for `COc1cc([C@@H]2c3cc4c(cc3[C@@H](Nc3cccc5cn[nH]c35)[C@@H]3COC(=O)[C@H]23)OCO4)cc(OC)c1OC` [Compound 14, 4β-NH-(7-indazolamine) podophyllotoxin], the IC50 in test [1] stood at 0.4 ± 0.01 µM; in the test with Hepatoma HepG2, 0.9 ± 0.1 µM; in the test on lung cancer A549 it was 0.5 ± 0.01 µM; in the test on cervical cancer Hela it was 0.9 ± 0.01 µM; in test [2], 43.3 ± 2.8 µM.

On to `COc1cc(C2c3cc4c(cc3C(Nc3ccc5[nH]ccc5c3)C3COC(=O)C23)OCO4)cc(OC)c1OC` (stereo not drawn) [Compound 15, 4β-NH-(5-aminoindole) podophyllotoxin], for which the IC50 in test [1] was 4.8 ± 0.9 µM; with Hepatoma HepG2 it was 2.5 ± 0.6 µM; with lung cancer A549 it was 2.2 ± 0.9 µM; in the test with cervical cancer Hela it was 3.8 ± 0.2 µM; in test [2], 30.5 ± 2.7 µM.

As to `COc1cc(C2c3cc4c(cc3C(Nc3ccc5cc[nH]c5c3)C3COC(=O)C23)OCO4)cc(OC)c1OC` (stereo not drawn) [Compound 16, 4β-NH-(6-aminoindole) podophyllotoxin], the IC50 in test [1] came to 0.3 ± 0.01 µM; in the test on Hepatoma HepG2, 0.6 ± 0.01 µM; in the test on lung cancer A549, 0.2 ± 0.02 µM; in the test with cervical cancer Hela, 0.4 ± 0.01 µM; in test [2], 140 µM.

For `COc1cc([C@@H]2c3cc4c(cc3[C@@H](Nc3cccc5cc[nH]c35)[C@@H]3COC(=O)[C@H]23)OCO4)cc(OC)c1OC` [Compound 17, 4β-NH-(7-aminoindole) podophyllotoxin], the IC50 in test [1] came to 0.8 ± 0.1 µM; with Hepatoma HepG2, 1.9 ± 0.2 µM; in the test on lung cancer A549 it was 1 ± 0.1 µM; in the test on cervical cancer Hela it was 0.8 ± 0.1 µM; in test [2], 38.4 ± 2.6 µM.

For the compound `COc1cc(C2c3cc4c(cc3C(Nc3ccccc3-c3nc5ccccc5[nH]3)C3COC(=O)C23)OCO4)cc(OC)c1OC` (stereo not drawn) [Compound 18, 4β-NH-(2-(2-aminophenyl)benzimidazole)-podophyllotoxin], the IC50 in test [1] is 1.7 ± 0.2 µM; in the test with Hepatoma HepG2, 3.6 ± 0.3 µM; with lung cancer A549 it was 2.8 ± 0.1 µM; in the test with cervical cancer Hela, 4.8 ± 0.2 µM; in test [2], greater than 100 µM.

For the compound `COc1cc([C@@H]2c3cc4c(cc3[C@@H](Nc3ccc(C)c(-c5nccc(-c6cccnc6)n5)c3)[C@@H]3COC(=O)[C@H]23)OCO4)cc(OC)c1OC` [Compound 19, 4β-NH-(2-(5-amino-2-methylphenyl)-4-(3-pyridyl)pyrimidine)-podophyllotoxin], the IC50 in test [1] is 9.5 ± 0.8 µM; with Hepatoma HepG2, 6.6 ± 0.1 µM; in the test on lung cancer A549, 7.7 ± 0.6 µM; in the test with cervical cancer Hela, 4.8 ± 0.4 µM; in test [2], greater than 100 µM.

As for `COc1cc(C2c3cc4c(cc3C(Nc3cccc5c3C(=O)c3ccccc3C5=O)C3COC(=O)C23)OCO4)cc(OC)c1O` (stereo not drawn) [Compound 20, 4β-NH-(1-aminoanthraquinone)-4′-demethylepipodophyllotoxin], the IC50 in test [1] amounted to 2.3 ± 0.1 µM; with Hepatoma HepG2, 8.8 ± 2.1 µM; with lung cancer A549, 1.8 ± 0.2 µM; with cervical cancer Hela, 8.5 ± 2.1 µM; in test [2], 53.7 ± 5.3 µM.

Turning to `COc1cc([C@@H]2c3cc4c(cc3[C@@H](Nc3ccc5c(c3)C(=O)c3ccccc3C5=O)[C@@H]3COC(=O)[C@H]23)OCO4)cc(OC)c1O` [Compound 21, 4β-NH-(2-aminoanthraquinone)-4′-demethylepipodophyllotoxin], the IC50 in test [1] is 4 ± 0.5 µM; with Hepatoma HepG2, 1.1 ± 0.4 µM; in the test on lung cancer A549 it was greater than 100 µM; in the test on cervical cancer Hela, 1.9 ± 0.3 µM; in test [2], 55.4 ± 6.2 µM.

Regarding `COc1cc(C2c3cc4c(cc3C(Nc3ccc5c(c3N)C(=O)c3ccccc3C5=O)C3COC(=O)C23)OCO4)cc(OC)c1O` (stereo not drawn) [Compound 22, 4β-NH-(1,2-diaminoanthraquinone)-4′-demethylepipodophyllotoxin], the IC50 in test [1] was 18.1 ± 2.8 µM; in the test with Hepatoma HepG2 it was greater than 100 µM; in the test on lung cancer A549 it was greater than 100 µM; with cervical cancer Hela, greater than 100 µM; in test [2] it was greater than 100 µM.

For `COc1cc([C@@H]2c3cc4c(cc3[C@@H](Nc3cccc5c3C(=O)c3cccc(N)c3C5=O)[C@@H]3COC(=O)[C@H]23)OCO4)cc(OC)c1O` [Compound 23, 4β-NH-(1,5-diaminoanthraquinone)-4′-demethylepipodophyllotoxin], the IC50 (in test [1]; in the test on Hepatoma HepG2; in the test with lung cancer A549; in the test with cervical cancer Hela; in test [2]) was greater than 100 µM each time.

Regarding `COc1cc(C2c3cc4c(cc3C(Nc3ccc5c(c3)C(=O)c3ccc(N)cc3C5=O)C3COC(=O)C23)OCO4)cc(OC)c1O` (stereo not drawn) [Compound 24, 4β-NH-(2,6-diaminoanthraquinone)-4′-demethylepipodophyllotoxin], the IC50 is 4.2 ± 1.1 µM in test [1]; greater than 100 µM in the test on Hepatoma HepG2; greater than 100 µM in the test with lung cancer A549; greater than 100 µM in the test on cervical cancer Hela; greater than 100 µM in test [2].

In the case of `COc1cc([C@@H]2c3cc4c(cc3[C@@H](Nc3nc(N)nc5ccccc35)[C@@H]3COC(=O)[C@H]23)OCO4)cc(OC)c1O` [Compound 25, 4β-NH-(2,4-quinazolinediamine)-4′-demethylepipodophyllotoxin], the IC50 in test [1] was 6.1 ± 1.3 µM; in the test on Hepatoma HepG2, 9.8 ± 1.7 µM; in the test on lung cancer A549, 3.6 ± 0.8 µM; with cervical cancer Hela, 3.6 ± 0.9 µM; in test [2], 16.9 ± 2.5 µM.
